Reference: paper PMC5900025, “Naphthoquinone Derivatives as Scaffold to Develop New Drugs for Tuberculosis Treatment” (Frontiers in Microbiology, 2018)
≈ marks a conversion by molar mass, not a printed value. Where two headings read alike, the source gives them in different places.

Legend:
Type in all cases: cell-based
[1] = system: three M. tuberculosis strains (H37Rv, INHR, RMPR); assay: microbe, parasite or virus in culture; settings: Mycobacterium tuberculosis, stated for all three strains together
[2] = system: M. tuberculosis pan-susceptible H37Rv (ATCC 27294); assay: microbe, parasite or virus in culture; settings: REMA, 7 days at 37°C
[3] = system: J774A.1 macrophage cell line (ATCC TIB-67); assay: Cytotoxicity assay (resazurin); settings: Mus musculus, J774.A1
[4] = Mycobacterium tuberculosis, 168 h, read-out: MIC
[5] = J774A.1 cells, concentration maintaining viability of 50% of the cells
[6] = Mycobacterium tuberculosis, 168 h

Row | Compound | MIC [1] [µM] | MIC [2, 4] [µM] | IC50 [3] [µM] | IC50 [3, 5] [µM] | MIC [2, 6] [µM] | MIC ([2]; read-out: MIC) [µM]
1 | O=C1C(Cl)=C(Cl)C(=O)c2ccccc21 [Compound 1, 2,3-Dichloronaphthalene-1,4-dione] | 111 (≈ 25.1 µg/mL) | 111 (≈ 25.1 µg/mL) | 103 | – | – | –
2 | CC1(C)CCC2=C(O1)C(=O)c1ccccc1C2=O [Compound 2, 2,2-Dimethyl-3,4-dihydro-2H-benzo[g]chromene-5, 10-dione] | 103 to 207 (≈ 25 to 50.1 µg/mL) | 103 (≈ 25 µg/mL) | – | 285 | – | –
3 | CC1(C)CC2=C(O1)C(=O)c1ccccc1C2=O [Compound 3, 2,2-Dimethyl-2,3-dihydronaphtho[2,3-b]furan-4,9-dione] | 54.8 (≈ 12.5 µg/mL) | 54.8 (≈ 12.5 µg/mL) | – | > 877 | – | –
4 | C=CCOC1=CC(=O)c2ccccc2C1=O [Compound 4, 2-(Allyloxy)naphthalene-1,4-dione] | – | – | – | 173 | 58.4 (≈ 12.5 µg/mL) | –
5 | NC1=CC(=O)c2ccccc2C1=O [Compound 5, 2-Aminonaphthalene-1,4-dione] | – | 72.2 (≈ 12.5 µg/mL) | > 1160 | – | – | –
6 | O=C1C=C(Nc2ccccc2)C(=O)c2ccccc21 [Compound 6, 2-(Phenylamino)naphthalene-1,4-dione] | – | – | – | > 803 | 110 (≈ 27.5 µg/mL) | 100.4 (≈ 25 µg/mL)
7 | NNC(=O)c1ccncc1 [INH, isoniazid, reference compound] | – | 0.438 (≈ 0.0601 µg/mL) | – | 3730 | – | –
8 | CO[C@H]1/C=C/O[C@@]2(C)Oc3c(C)c(O)c4c(O)c(c(/C=N/N5CCN(C)CC5)c(O)c4c3C2=O)NC(=O)/C(C)=C\C=C\[C@H](C)[C@H](O)[C@@H](C)[C@@H](O)[C@@H](C)[C@H](OC(C)=O)[C@@H]1C [RIF, rifampicin, reference compound] | – | 0.608 (≈ 0.5 µg/mL) | – | > 2490 | – | –
